Patent US12312378B2, “Glucosamine derivatives for the prevention or treatment of joint disorders” (RISEN (SUZHOU) PHARMA TECH CO., LTD., priority 2017, dated 2025)
Entries after “also recorded” stand apart in the source; their conditions may differ. Marks after values point to notes of the source that are not given here.

Tests used:
[1] = tested on: MIA-induced OA rat model; assay: Monosodium iodoacetate-induced osteoarthritis (MIA) model in rat knee; assay type: in vivo
Protocol: Osteoarthritis was induced by intra-articular (i.a.) injection of MIA solution in the rat knee joint as follows: Briefly, rats were anesthetized with isoflurane and given a single i.a. administration of 2 mg of MIA dissolved in saline through the intrapatellar ligament of the right knee. MIA was administered in a volume of 50 μL. Basal readings were established using a group of control rats injected with 10% ethanol in water. Rats were randomized by initial body weight to groups of 6 or 7. After MIA injection, the MIA groups began treatment with either vehicle, or a test compound at a preset dose regime for a period of 28 days. Clinical observations were recorded, including body weight, joint swelling, and weight bearing, on pre-induction day (day 0), day 3, 5, 7, 14, 21 and/or 28. At the end of the study, the animals were euthanized by CO2 and sacrificed. Joint samples including the tibia and femur were sectioned in the coronal plane and stained using both H&E and Safranin-O. Knee joints were examined and scored for cartilage degeneration, the presence of osteophytes, the amount and extent of calcified cartilage and subchondral bone damage, and the amount of synovial membrane inflammation using the Osteoarthritis Research Society International (OARSI) scoring system put forth in 2010 (Kraus, V. B. et al., Osteoarthritis Cartilage, 2010, Suppl 3:S35-52).
Studies of compound 16 in the MIA model were conducted as described above.

[2] = tested on: MMT-induced model of osteoarthritis; assay: Medial meniscus transection (MMT) model in rats; assay type: in vivo, rat; details: for Weight bearing (right paw, %), mean: G2, gavage 4 times every day
Source text: In the rat MMT model, the unilateral knee (right knee) was cleaned and prepped for surgery. An incision was made over the medial aspect of the femoro-tibial joint. The medial collateral ligament was exposed via blunt dissection and transected to reflect the meniscus toward the femur. A full thickness cut was made through the meniscus at its narrowest point. The joint space was returned to normal, and the skin was closed and the animal allowed to recover. For the present study, at second day post MMT induction animals, G1 and G2 animals were treatment with vehicle and test compound 16 respectively. Animals were dosed 4 times every day, and were dosed by gavage for 4 weeks.

[3] = Pharmacokinetic study in SD rats: plasma GlcNBu after oral gavage of test compound; assay type: in vivo, Sprague-Dawley (SD) rats; set-up: key: (—): not detected; details: Table 5: plasma GlcNBu after oral administration of the indicated compound, 0.93 mmol/kg
Protocol: A test compound is dissolved in water at a concentration determined by the desired dose and dosing volume for the specific animal to which the compound is to be administered. A calculated volume of dosing solution is administered to the animal (PO, SQ, IP, or IV). A blood sample is collected following administration of the test compound at specific time points (such as 0 minutes (min), 5 min, 10 min, 15 min, 30 min, 1 hour (h), 1.5 h, 2 h, 3 h, 4, 6 h, etc.). The blood sample is converted to a plasma sample using standard techniques. The plasma samples are analyzed to determine the concentration of the test compound and, in some cases, GlcNBu.
According to the above general procedure, SD rats were grouped randomly into groups of six (n=6). The test compound, GlcNBu or a compound provided herein, was administered to the animals by oral gavage at a dose of 0.93 mmol/kg. For illustration purposes, GlcNBu was given at an oral dose of 232 mg/kg (0.93 mmol/kg), and compound 16 was administered at an equal molar dose (0.93 mmol/kg, i.e., 362 mg/kg). At pre-set time points, blood was taken through orbital venous plexus extraction, and the samples were analyzed using LC/MS-MS to determine the GlcNBu concentration in the plasma.
In the figure, Curves labeled with -●- and -▴- represent plasma GlcNBu concentration following oral administration of GlcNBu (232 mg/kg, or 0.93 mmol/kg) and compound 16 ([…], or 0.93 mmol/kg), respectively. […] FIG. 2A and FIG. 2B show examples of other compounds of the invention, presented in plasma GlcNBu concentration versus time curves; a summary of pharmacokinetic parameters for these compounds is given in Table 4 and Table 5.

[4] = tested on: destructive arthritis rat model; details: cited from earlier work
[5] = rats; data from i.v., i.p., and p.o. studies; cited from earlier work
[6] = tested on: OVX rat; details: GlcNBu feeding in the OVX rat; cited from earlier work
[7] = rats; cited from earlier work
[8] = humans, cited from earlier work
[9] = G2, histopathology after 4 weeks of dosing

For `CCCC(=O)N[C@H]1C(O)O[C@H](COC(=O)CCC)[C@@H](OC(=O)CCC)[C@@H]1O` (stereo partly drawn) [Compound 16, 2-N-4,6-O-tributyryl-D-glucosamine], the “Weight bearing, mean” value ([1]; MIA rats, Group 2, 234 mg/kg, Day 3) was 32.07%, the “Weight bearing, mean” value ([1]; MIA rats, Group 2, 234 mg/kg, Day 5) was 35.76** % and the “Weight bearing, mean” value ([1]; MIA rats, Group 2, 234 mg/kg, Day 7) was 37.72%. The “Weight bearing, mean” value ([1]; MIA rats, Group 2, 234 mg/kg, Day 14) was 40.86%, the “Weight bearing, mean” value ([1]; MIA rats, Group 2, 234 mg/kg, Day 21) was 44.12% and the “Weight bearing, mean” value ([1]; MIA rats, Group 2, 234 mg/kg, Day 28) was 45.90%. The “Weight bearing, mean” value ([1]; MIA rats, Group 2, 234 mg/kg, Pre-Injection (Day 0) baseline) was 50.49%, the “Weight bearing, mean” value ([1]; MIA rats, Group 3, 468 mg/kg, Day 3) was 34.56% and the “Weight bearing, mean” value ([1]; MIA rats, Group 3, 468 mg/kg, Day 5) was 37.40** %. For the same compound, the “Weight bearing, mean” value ([1]; MIA rats, Group 3, 468 mg/kg, Day 7) was 39.23%, the “Weight bearing, mean” value ([1]; MIA rats, Group 3, 468 mg/kg, Day 14) was 41.68* % and the “Weight bearing, mean” value ([1]; MIA rats, Group 3, 468 mg/kg, Day 21) was 44.25%. For the same compound, the “Weight bearing, mean” value ([1]; MIA rats, Group 3, 468 mg/kg, Day 28) was 44.98%, the “Weight bearing, mean” value ([1]; MIA rats, Group 3, 468 mg/kg, Pre-Injection (Day 0) baseline) was 50.25% and the “weight bearing on the back-right leg versus vehicle” value ([1]; MIA rats, day 5, all compound-treated groups (234 and 468 mg/kg)) was “significant increases”. The “weight bearing versus vehicle” value ([1]; MIA rats, high dose (G3, 468 mg/kg), day 14) was “significant increases”, the “osteophytes versus vehicle group” value ([1]; MIA rats, high dose group (468 mg/kg), histology) was “significantly decreased” and the “all other mean values for each histological parameter” value ([1]; MIA rats, high dose treated group (468 mg/kg)) was “clear trend of lowering”. For the same compound, the articular cartilage degeneration ([1]; MIA-induced OA rat model) was “slowed”, the “degeneration changes of chondrocyte clustering, G2 compared with G1” value [2] was “significantly lower; also recorded: significantly less” and the “values in all histology parameters, G2 versus G1” value [2] was “lower”. For the same compound, the “weight bearing on the right paw, G2 compared with G1” value ([2]; Day 3 and Days 14-28) was “significantly increased; also recorded: significantly more”, the “Weight bearing (right paw, %), mean” value ([2]; Day 3) was 36.68* % and the “Weight bearing (right paw, %), mean” value ([2]; Day 5) was 39.76%. For the same compound, the “Weight bearing (right paw, %), mean” value ([2]; Day 7) was 40.68%, the “Weight bearing (right paw, %), mean” value ([2]; Day 14) was 42.71* % and the “Weight bearing (right paw, %), mean” value ([2]; Day 21) was 43.73** %. For the same compound, the “Weight bearing (right paw, %), mean” value ([2]; Day 28) was 44.06** %, the “Weight bearing (right paw, %), mean” value ([2]; Pre-injection baseline) was 49.55% and the “Chondrocyte clustering (0-4), mean” value [2, 9] was 1.17*. The “Degenerative changes in cartilage (0-4), mean” value [2, 9] was 1.17, the “Inflammatory response in subchondral bone region (0-4), mean” value [2, 9] was 0.00 and the “Nature of predominant tissue (0-4), mean” value [2, 9] was 1.00. For the same compound, the “Neo-vascularization (0-4), mean” value [2, 9] was 0.00, the “Osteophytes (0-4), mean” value [2, 9] was 1.17 and the “Structural integrity (0-4), mean” value [2, 9] was 1.17. The “Surface regularity (0-4), mean” value [2, 9] was 1.67 and the “Total scoring, mean” value [2, 9] was 7.33.
With `CCCC(=O)N[C@@H]1C(OC(=O)CCC)O[C@H](COC(=O)CCC)[C@@H](OC(=O)CCC)[C@@H]1O` (stereo partly drawn) [Compound 74, 2-N-1,4,6-tri-O-tetrabutyryl-D-glucosamine] the AUC0-t [3] was 662 ng·h/mL, the “AUC0-∞” value [3] was 889 ng·h/mL and the CLz/F [3] was 367 mL/min/kg. The Cmax [3] was 426 ng/mL, the Tmax [3] was 0 h and the t1/2z [3] was 1 h.
For `CCCC(=O)N[C@H]1C(OCc2ccccc2)O[C@H](CO)[C@@H](O)[C@@H]1O` (stereo partly drawn) [Compound 75, 1-O-benzyl-2-N-butyryl-D-glucosamine], the AUC0-t [3] was “(—)”, the “AUC0-∞” value [3] was “(—)” and the CLz/F [3] was “(—)”. For the same compound, the Cmax [3] was “(—)”, the Tmax [3] was “(—)” and the Vz/F [3] was “(—)”. For the same compound, the t1/2z [3] was “(—)”.
In the case of `CCCC(=O)N[C@H]1C(OCc2ccccc2)O[C@H](CO)[C@@H](O)[C@@H]1OCc1ccccc1` (stereo partly drawn) [Compound 76, 2-N-butyryl-1,3-di-O-benzyl-D-glucosamine], the AUC0-t [3] is reported as “(—)”, the “AUC0-∞” value [3] is reported as “(—)” and the CLz/F [3] is reported as “(—)”. For the same compound, the Cmax [3] was “(—)”, the Tmax [3] was “(—)” and the Vz/F [3] was “(—)”. For the same compound, the t1/2z [3] was “(—)”.
In the case of `CCCC(=O)N[C@H]1C(O)O[C@H](COC(=O)CCC(=O)O)[C@@H](OC(=O)CCC(=O)O)[C@@H]1O` (stereo partly drawn) [Compound 79, 2-N-butyryl-4,6-di-O-(4-hydroxy-4-oxo-butyryl)-D-glucosamine], the AUC0-t [3] is reported as “(—)”, the “AUC0-∞” value [3] is reported as “(—)” and the CLz/F [3] is reported as “(—)”. The Cmax [3] was “(—)”, the Tmax [3] was “(—)” and the Vz/F [3] was “(—)”. For the same compound, the t1/2z [3] was “(—)”.
With `CCCC(=O)N[C@H]1C(O)O[C@H](CO)[C@@H](O[C@@H]2O[C@H](CO)[C@@H](O)[C@H](O)[C@H]2O)[C@@H]1O` (stereo partly drawn) [Compound 89, 2-N-butyryl-4-O-(D-glucopyranosyl)-D-glucosamine] the AUC0-t [3] was 1757 ng·h/mL, the “AUC0-∞” value [3] was 1942 ng·h/mL and the CLz/F [3] was 167 mL/min/kg. It also gave a Cmax [3] of 1110 ng/mL, a Tmax [3] of 2 h and a t1/2z [3] of 1 h.
For `CCCC(=O)N[C@H]1C(O)O[C@H](COC(=O)NCCCC(=O)O)[C@@H](O)[C@@H]1O` (stereo partly drawn) [Compound 94, 2-N-butyryl-6-O-((3-carboxy-1-propyl)aminocarbonyl)-D-glucosamine], the AUC0-t [3] was “(—)”, the “AUC0-∞” value [3] was “(—)” and the CLz/F [3] was “(—)”. For the same compound, the Cmax [3] was “(—)”, the Tmax [3] was “(—)” and the Vz/F [3] was “(—)”. For the same compound, the t1/2z [3] was “(—)”.
In the case of `CCCC(=O)N[C@H]1C(O)O[C@H](CO)[C@@H](O)[C@@H]1O` (stereo partly drawn) [GlcNBu, N-butyryl glucosamine], the subchondral bone structure [4] is given as “preserved strikingly”, the half-life [5] is given as “about 20 min” and the “bone mineral and some biomechanical properties” value [6] is given as “preserves”.
For `N[C@H]1C(O)O[C@H](CO)[C@@H](O)[C@@H]1O` (stereo partly drawn) [Glucosamine, glucosamine], the “oral bioavailability (F)” value [7] is listed as 0.19-0.21 and the serum levels ([8]; very large doses, after oral or IV administration) is listed as “cannot be detected”.
For `CC(=O)N[C@H]1C(O)O[C@H](CO)[C@@H](O)[C@@H]1O` (stereo partly drawn) [N-acetylglucosamine], the “half-life compared with glucosamine” value ([8]; polyvalent or monovalent form) is listed as “longer”.
